Experimental data: patent US8088806B2 (Achillion Pharmaceuticals, Inc., priority 2005, dated 2012)

tested on: HCV replicon; assay: Replicon based assay of HCV replication inhibition (NPT ELISA); assay type: cell-based, Hepatitis C virus; settings: Hepatitis C virus, read-out: Activity
In short: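 NPT (neomycin phosphotransferase) content, proportional to replicon replication, quantified by capture ELISA on day four. Before that, replicon-bearing Huh-7 cells in G418-free screening medium were exposed three days at 37° C to compound, typically six doses from 10 to 0.03 micromolar, with equal DMSO across wells.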

SMILES	EC50
CCCCCCCCOc1cc([N+](=O)[O-])c(Nc2nc(-c3cccnc3)c([N+](=O)[O-])s2)cc1C(F)(F)F [compound 788, N-(5-(trifluoromethyl)-2-nitro-4-(octyloxy)phenyl)-5-nitro-4-(pyridin-3-yl)thiazol-2-amine]	1000 to 10000 nM

same assay, conditions: Hepatitis C virus, replicon based assay of HCV replication inhibition; Table IV; read-out: Activity

SMILES	EC50
c1cc(Nc2nc(-c3cccnc3)cs2)cc(-c2cocn2)c1 [compound 749, N-(3-(oxazol-4-yl)phenyl)-4-(pyridin-3-yl)thiazol-2-amine]	> 10000 nM
CCn1c(C)nc2cc(Nc3nc(-c4cccnc4)cs3)ccc21 [compound 750, 1-ethyl-2-methyl-N-(4-(pyridin-3-yl)thiazol-2-yl)-1H-benzo[d]imidazol-5-amine]	> 10000 nM
c1ccc(Oc2ccc(Nc3nc(-c4cccnc4)cs3)cn2)cc1 [compound 752, 6-phenoxy-N-(4-(pyridin-3-yl)thiazol-2-yl)pyridin-3-amine]	1000 to 10000 nM
c1cncc(-c2csc(Nc3ccc4ncsc4c3)n2)c1 [compound 753, N-(4-(pyridin-3-yl)thiazol-2-yl)benzo[d]thiazol-6-amine]	> 10000 nM
c1ccc(-c2cc(Nc3nc(-c4cccnc4)cs3)[nH]n2)cc1 [compound 754, 3-phenyl-N-(4-(pyridin-3-yl)thiazol-2-yl)-1H-pyrazol-5-amine]	> 10000 nM
c1cncc(-c2csc(Nc3ccc4[nH]ncc4c3)n2)c1 [compound 755, N-(4-(pyridin-3-yl)thiazol-2-yl)-1H-indazol-5-amine]	> 10000 nM
c1ccc(-c2ccc(Nc3nc(-c4cccnc4)cs3)cn2)cc1 [compound 756, 6-phenyl-N-(4-(pyridin-3-yl)thiazol-2-yl)pyridin-3-amine]	1000 to 10000 nM
c1ccc(CCc2ccc(Nc3nc(-c4cccnc4)cs3)cc2)cc1 [compound 757, N-(4-phenethylphenyl)-4-(pyridin-3-yl)thiazol-2-amine]	< 1000 nM
CCN(CC)CCOC(=O)c1ccc(Nc2nc(-c3cccnc3)cs2)cc1 [compound 758, 2-(diethylamino)ethyl 4-(4-(pyridin-3-yl)thiazol-2-ylamino)benzoate]	> 10000 nM
CCN(CC)C(=O)c1cccc(Nc2nc(-c3cccnc3)cs2)c1 [compound 759, 3-(4-(pyridin-3-yl)thiazol-2-ylamino)-N,N-diethylbenzamide]	> 10000 nM
O=C(c1ccccc1)c1cccc(Nc2nc(-c3cccnc3)cs2)c1 [compound 760, (3-(4-(pyridin-3-yl)thiazol-2-ylamino)phenyl)(phenyl) methanone]	> 10000 nM
c1cncc(-c2csc(Nc3ccc4nccnc4c3)n2)c1 [compound 761, N-(4-(pyridin-3-yl)thiazol-2-yl)quinoxalin-6-amine]	> 10000 nM
[2H]c1ccc2nc(-c3csc(Nc4ccc(OCC5CCCCC5)c(C(F)(F)F)c4)n3)ccc2n1 [compound 762, N-(4-(cyclohexylmethoxy)-3-(trifluoromethyl)phenyl)-4-(2-deuterated-1,5-naphthyridin-6-yl)thiazol-2-amine]	1000 to 10000 nM
FC(F)(F)c1cc(Nc2nc(-c3cncnc3-c3ccccc3)cs2)ccc1OCC1CCCCC1 [compound 763, N-(4-(cyclohexylmethoxy)-3-(trifluoromethyl)phenyl)-4-(4-phenylpyrimidin-5-yl)thiazol-2-amine]	1000 to 10000 nM
N#Cc1ccc(-c2csc(Nc3ccc(OCC4CCCCC4)c(C(F)(F)F)c3)n2)o1 [compound 764, 5-(2-(4-(cyclohexylmethoxy)-3-(trifluoromethyl)phenylamino)thiazol-4-yl)furan-2-carbonitrile]	< 1000 nM
OCc1cc2cc(-c3csc(Nc4ccc(OCC5CCCCC5)c(C(F)(F)F)c4)n3)ccc2o1 [compound 765, (5-(2-(4-(cyclohexylmethoxy)-3-(trifluoromethyl)phenylamino)thiazol-4-yl)benzofuran-2-yl)methanol]	< 1000 nM
FC(F)(F)c1ccc(-c2csc(Nc3ccc(OCC4CCCCC4)c(C(F)(F)F)c3)n2)nc1 [compound 766, N-(4-(cyclohexylmethoxy)-3-(trifluoromethyl)phenyl)-4-(5-(trifluoromethyl)pyridin-2-yl)thiazol-2-amine]	< 1000 nM
COc1ncc(-c2csc(Nc3ccc(OCC4CCCCC4)c(C(F)(F)F)c3)n2)c(OC)n1 [compound 767, N-(4-(cyclohexylmethoxy)-3-(trifluoromethyl)phenyl)-4-(2,4-dimethoxypyrimidin-5-yl)thiazol-2-amine]	< 1000 nM
Cc1ccnc(-c2csc(Nc3ccc(OCC4CCCCC4)c(C(F)(F)F)c3)n2)c1 [compound 768, N-(4-(cyclohexylmethoxy)-3-(trifluoromethyl)phenyl)-4-(4-methylpyridin-2-yl)thiazol-2-amine]	< 1000 nM

SMILES	EC50
CCOC(=O)c1csc(-c2csc(Nc3ccc(OCC4CCCCC4)c(C(F)(F)F)c3)n2)n1 [compound 769, ethyl 2-(2-(4-(cyclohexylmethoxy)-3-(trifluoromethyl)phenylamino)thiazole-4-yl)thiazole-4-carboxylate]	< 1000 nM
CCCCCCCCOc1ccc(Nc2nc(-c3nc4ccccc4n3C)cs2)cc1C(F)(F)F [compound 770, N-(3-(trifluoromethyl)-4-(octyloxy)phenyl)-4-(1-methyl-1H-benzo[d]imidazol-2-yl)thiazol-2-amine]	< 1000 nM
FC(F)(F)c1cccc(-c2csc(Nc3ccc(OCC4CCCCC4)c(C(F)(F)F)c3)n2)c1 [compound 771, N-(4-(cyclohexylmethoxy)-3-(trifluoromethyl)phenyl)-4-(3-(trifluoromethyl)phenyl)thiazol-2-amine]	< 1000 nM
COc1cccc(-c2csc(Nc3ccc(OCC4CCCCC4)c(C(F)(F)F)c3)n2)n1 [compound 772, N-(4-(cyclohexylmethoxy)-3-(trifluoromethyl)phenyl)-4-(6-methoxypyridin-2-yl)thiazol-2-amine]	< 1000 nM
COc1ccc2cc(-c3csc(Nc4ccc(OCC5CCCCC5)c(C(F)(F)F)c4)n3)ccc2c1 [compound 773, N-(4-(cyclohexylmethoxy)-3-(trifluoromethyl)phenyl)-4-(2-methoxynaphthalen-6-yl)thiazol-2-amine]	< 1000 nM
FC(F)(F)c1cc(Nc2nc(-c3cccc4cccnc34)cs2)ccc1OCC1CCCCC1 [compound 774, N-(4-(cyclohexylmethoxy)-3-(trifluoromethyl)phenyl)-4-(quinolin-8-yl)thiazol-2-amine]	< 1000 nM
COc1ncc(-c2csc(Nc3ccc(OC/C=C(\C)CCC=C(C)C)c(C(F)(F)F)c3)n2)cn1 [compound 775, N-(4-((E)-3,7-dimethylocta-2,6-dienyloxy)-3-(trifluoromethyl)phenyl)-4-(2-methoxypyrimidin-5-yl)thiazol-2-amine]	< 1000 nM
COc1ncc(-c2csc(Nc3ccc(OCCC(C)CCCC(C)C)c(C(F)(F)F)c3)n2)cn1 (stereo not drawn) [compound 776, N-(4-(3,7-dimethyloctyloxy)-3-(trifluoromethyl)phenyl)-4-(2-methoxypyrimidin-5-yl)thiazol-2-amine]	< 1000 nM
CCCCCCCCSc1ccc(Nc2nc(-c3cnc(OC)nc3)cs2)cc1C(F)(F)F [compound 777, N-(3-(trifluoromethyl)-4-(octylthio)phenyl)-4-(2-methoxypyrimidin-5-yl)thiazol-2-amine]	< 1000 nM
COc1ncc(-c2csc(Nc3ccc(C(=O)N4CCC5CCCCC5C4)c(C(F)(F)F)c3)n2)cn1 (stereo not drawn) [compound 778, (4-(4-(2-methoxypyrimidin-5-yl)thiazol-2-ylamino)-2-(trifluoromethyl)phenyl) (octahydroisoquinolin-2(1H)-yl)methanone]	1000 to 10000 nM
CCCCCCCCOC(=O)c1ccc(Nc2nc(-c3cnc(OC)nc3)cs2)cc1C(F)(F)F [compound 779, octyl 4-(4-(2-methoxypyrimidin-5-yl)thiazol-2-ylamino)-2-(trifluoromethyl)benzoate]	< 1000 nM
CCCCCCC#Cc1ccc(Nc2nc(-c3cnc(OC)nc3)cs2)cc1C(F)(F)F [compound 780, N-(3-(trifluoromethyl)-4-(oct-1-ynyl)phenyl)-4-(2-methoxypyrimidin-5-yl)thiazol-2-amine]	< 1000 nM
COc1ncc(-c2csc(Nc3ccc(N4CCC5CCCCC5C4)c(C(F)(F)F)c3)n2)cn1 (stereo not drawn) [compound 781, N-(3-(trifluoromethyl)-4-(octahydroisoquinolin-2(1H)-yl)phenyl)-4-(2-methoxypyrimidin-5-yl)thiazol-2-amine]	< 1000 nM
CCCCCCCCOc1ccc(Nc2nc(-c3ccc(O)cc3O)cs2)cc1C(F)(F)F [compound 782, 4-(2-(3-(trifluoromethyl)-4-(octyloxy)phenylamino)thiazol-4-yl)benzene-1,3-diol]	< 1000 nM
CCCCCCCCOc1ccc(Nc2nc(-c3cccn3C)cs2)cc1C(F)(F)F [compound 783, N-(3-(trifluoromethyl)-4-(octyloxy)phenyl)-4-(1-methyl-1H-pyrrol-2-yl)thiazol-2-amine]	< 1000 nM
CCCCCCCCOc1ccc(Nc2nc(C(=O)CNc3nccs3)cs2)cc1C(F)(F)F [compound 784, 1-(2-(3-(trifluoromethyl)-4-(octyloxy)phenylamino)thiazol-4-yl)-2-(thiazol-2-ylamino)ethanone]	< 1000 nM
CCCCCCCCOc1ccc(Nc2nc(C(=O)CSc3ncc[nH]3)cs2)cc1C(F)(F)F [compound 785, 2-(1H-imidazol-2-ylthio)-1-(2-(3-(trifluoromethyl)-4-(octyloxy)phenylamino)thiazol-4-yl)ethanone]	1000 to 10000 nM
CCCCCCCCOc1ccc(Nc2nc(C3=CSC4=NCCCN34)cs2)cc1C(F)(F)F [compound 786, N-(3-(trifluoromethyl)-4-(octyloxy)phenyl)-4-(6,7-dihydro-5H-thiazolo[3,2-a]pyrimidin-3-yl)thiazol-2-amine]	< 1000 nM
CCCCCCCCOc1ccc(Nc2nc(-c3cccnc3)c([N+](=O)[O-])s2)cc1C(F)(F)F [compound 787, N-(3-(trifluoromethyl)-4-(octyloxy)phenyl)-5-nitro-4-(pyridin-3-yl)thiazol-2-amine]	1000 to 10000 nM
